Laboratory results from ChEMBL document CHEMBL1201862, “PubChem BioAssay data set” (2004).
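These data come from cells grown in 96-well plates and exposed to compound for 48 hours at five concentrations. GI50 = concentration required for 50% inhibition of growth.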 Activity calls are given as the source filed them. No stated cut-off is given here; in the data, active = GI50 up to about 1.1 µM and inactive = higher.

Assays:
Test in all cases: DTP human tumour cell line panel, 48 h
DMS-273 = test system: DMS-273
HOP-18 = test system: HOP-18
SNB-78 = test system: SNB-78
RXF 631 = test system: RXF 631
XF498 = test system: XF498
DMS-114 = test system: DMS-114
LXFL 529 = test system: LXFL 529
DLD-1 = test system: DLD-1
M19-MEL = test system: M19-MEL

Measured: GI50

C/C(=N\NC(=N)N)C(CN(CC(C)C)CC(C)C)C(=O)Nc1ccc(C)cc1C (configuration not stated)
inactive: DMS-273 > 100 µM | HOP-18 > 100 µM | SNB-78 > 100 µM | RXF 631 > 100 µM | XF498 59.6 µM | DMS-114 > 100 µM | LXFL 529 > 100 µM | DLD-1 > 100 µM | M19-MEL > 100 µM

O=c1c2ccccc2c(=O)n2n1-c1cccc(c1)CSSCc1cccc-2c1
inactive: DMS-273 > 10 µM | HOP-18 > 10 µM | SNB-78 62.1 µM | RXF 631 > 10 µM | XF498 62.2 µM | DMS-114 > 10 µM | LXFL 529 > 10 µM | DLD-1 > 10 µM | M19-MEL > 10 µM

NC(=O)c1ncn(C2OC(CO)C(O)C2O)c1O (configuration not stated)
inactive: HOP-18 53.7 µM | SNB-78 > 100 µM | RXF 631 > 100 µM | XF498 > 100 µM | DMS-114 > 100 µM | LXFL 529 > 100 µM | M19-MEL > 100 µM

O=C1CCCC2=C(N1)C(=O)C=CC2=O
inactive: DMS-273 > 100 µM | HOP-18 > 100 µM | SNB-78 > 100 µM | RXF 631 > 100 µM | XF498 > 100 µM | DMS-114 > 41.7 µM | LXFL 529 > 58.7 µM | DLD-1 > 53.2 µM | M19-MEL > 100 µM

CC(=O)NNc1nc(C)c(C(=O)/C=C/c2ccccc2Cl)s1
inactive: DMS-273 > 100 µM | HOP-18 > 100 µM | SNB-78 > 100 µM | RXF 631 > 100 µM | DMS-114 > 100 µM | DLD-1 > 100 µM | M19-MEL > 100 µM

NNC(=O)C(=O)N/N=C(\CCC(=O)Nc1ccc(Cl)cc1)Cc1nc2ccccc2s1
inactive: DMS-273 15.5 µM | HOP-18 5.33 µM | SNB-78 70.5 µM | DMS-114 19.1 µM | LXFL 529 26.4 µM | M19-MEL 17.4 µM

NC(CCCCN/C=C1/N=C(c2ccccc2)OC1=O)C(=O)O (configuration not stated)
inactive: DMS-273 > 100 µM | SNB-78 > 100 µM | XF498 > 100 µM | DMS-114 > 100 µM | LXFL 529 > 100 µM | DLD-1 > 100 µM | M19-MEL > 100 µM

O=C1C(c2ccccc2)=C(c2ccccc2)C(c2ccc(Cc3ccc(C4=C(c5ccccc5)C(=O)C(c5ccccc5)=C4c4ccccc4)cc3)cc2)=C1c1ccccc1
inactive: DMS-273 > 100 µM | HOP-18 > 100 µM | SNB-78 > 100 µM | XF498 > 100 µM | DMS-114 > 100 µM | DLD-1 > 100 µM | M19-MEL > 100 µM

Cc1ccc2nc3c(C)cc(=O)cc-3sc2c1
inactive: DMS-273 27.9 µM | HOP-18 56.6 µM | SNB-78 32.5 µM | RXF 631 31.2 µM | DMS-114 17.5 µM | LXFL 529 17.9 µM | DLD-1 30.3 µM | M19-MEL 15.9 µM

O=C(CC1C(=O)Nc2ccccc2[S+]1[O-])Nc1ccc(Cl)cc1 (configuration not stated)
inactive: DMS-273 > 100 µM | SNB-78 53.7 µM | LXFL 529 91.8 µM | DLD-1 > 100 µM

CCCCCCCCCCCCOC(=N)N1CCOCC1
inactive: DMS-273 9.55 µM | HOP-18 2 µM | SNB-78 6.59 µM | RXF 631 8.18 µM | XF498 13.3 µM | DMS-114 6.7 µM | LXFL 529 4.06 µM | DLD-1 3.3 µM | M19-MEL 5.22 µM

CCN(CC)C(=S)N/N=C(\C)c1ccccc1O
inactive: DMS-273 12.9 µM | HOP-18 26.2 µM | SNB-78 > 100 µM | RXF 631 35.2 µM | DMS-114 11.9 µM | LXFL 529 13.5 µM | DLD-1 17.8 µM | M19-MEL 39.9 µM

Cn1cnc2[nH]c(=O)[nH]c(=S)c21
inactive: DMS-273 > 100 µM | HOP-18 > 100 µM | SNB-78 > 100 µM | RXF 631 > 100 µM | XF498 > 100 µM | DMS-114 > 100 µM | LXFL 529 > 100 µM | DLD-1 > 100 µM | M19-MEL > 100 µM

CN(C)CCNC(=O)c1c2ccccc2cc2ccccc12
inactive: DMS-273 33 µM | HOP-18 > 100 µM | SNB-78 55.3 µM | XF498 19.5 µM | DMS-114 53.1 µM | LXFL 529 26.2 µM | DLD-1 41.8 µM | M19-MEL 33.2 µM
